In data set [1] the target is T1, 3-hydroxy-3-methylglutaryl-CoA synthase (HMGS) (Homo sapiens, UniProt Q01581).
T1 sequence (Q01581 1-520): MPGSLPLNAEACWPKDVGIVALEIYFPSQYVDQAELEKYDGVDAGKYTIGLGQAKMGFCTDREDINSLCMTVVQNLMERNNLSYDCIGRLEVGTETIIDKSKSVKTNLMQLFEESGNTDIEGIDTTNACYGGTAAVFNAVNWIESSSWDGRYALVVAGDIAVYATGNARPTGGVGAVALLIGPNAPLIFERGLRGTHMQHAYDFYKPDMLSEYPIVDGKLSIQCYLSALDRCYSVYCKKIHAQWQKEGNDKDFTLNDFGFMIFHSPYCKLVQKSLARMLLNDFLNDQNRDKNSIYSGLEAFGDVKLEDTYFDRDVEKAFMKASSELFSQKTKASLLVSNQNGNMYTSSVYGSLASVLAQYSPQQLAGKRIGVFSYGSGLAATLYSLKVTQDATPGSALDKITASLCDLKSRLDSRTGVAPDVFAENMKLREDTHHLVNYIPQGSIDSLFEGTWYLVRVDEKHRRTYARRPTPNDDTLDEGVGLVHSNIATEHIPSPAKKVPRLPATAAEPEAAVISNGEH
To be noted: cited from earlier work.

Data set [2] concerns the target purified 20S proteasome (Homo sapiens, UniProt P28074). To be noted: read-out: IC50 against purified 20S proteasome; cited from earlier work.
Data set [3] concerns assembled 20S proteasome from recombinant subunits containing the SalJ β-subunit. The data set is described as follows: 20S Proteasome Activity Assay (Chemicon), cleavage of LLVY-AMC. Type of data set: biochemical, S. tropica. To be noted: assembled recombinant 20S proteasome with SalJ β-subunit (Ala→Val at residue 49); FIG. 19. The source says: (§1) Inhibition of the 20S proteasome will also be measured 20S for all new salinosporamides. The CHEMICON Proteasome Activity Assay Kit by Chemicon International provides a system that is designed to detect the chymotrypsin-like activity of the yeast 20S proteasome through the release of the fluorophore AMC (7-amino-4-methylcoumarin) from the specific substrate Suc-LLVY-AMC after cleavage. AMC can be detected using a fluorometer with a 380 nm excitation and a 460 nm emission filter. For inhibitor screening, the test sample is added to the assay plate and fluorescence read, looking for a reduction in proteasome activity.
(§2) The ubiquitin-proteasome pathway involves the 26S proteasome, which is formed by the barrel-shaped 20S proteasome (about 700 kDa) and two 19S (about 700 kDa) regulatory complexes on each end of the 20S proteasome. […] Cleavage of the free flourophore, 7-Amino-4-methylcoumarin (AMC) from LLVY can be detected and quantified using a 380/460 nm filter set in a flourmeter. […]
(§3) The present invention describes the biosynthesis of SalJ (FIG. 16). […] Yet, the assembled-recombinant 20S proteasome with the SalJ β-subunit (far right two bars) confers resistance to at least SalA as there was no substantial measurable difference in the level of fluorescence of the free AMC (FIG. 19) in the presence or absence of SalA. […]

Data set [4] has as its system multiple myeloma cells that have become refractory to bortezomib therapy. The following applies: cited from earlier work.
Data set [5] relates to animal tumor models. The following applies: cited from earlier work.
The subject of data set [6] is S. tropica 20S proteasome. As to the kind of experiment: 20S Proteasome Activity Assay (Chemicon), cleavage of LLVY-AMC. Type of data set: biochemical. To be noted: preliminary experiments, FIG. 19.
Excerpt: as §1, §2, §3

Data set [7] concerns the target T2, yeast 20S proteasome (Saccharomyces cerevisiae, UniProt P30656).
T2 construct: minus the N-terminal propeptide that is cleaved off autocatalytically during assembly; purchased Chemicon International
The data set is described as above. Type of data set: biochemical. The following applies: preliminary experiments, FIG. 19.
Excerpt: as §1, §2, §3

The test system of data set [8] is colon, pancreatic, and lung cancers. The following applies: cited from earlier work.

The IC50 is the midpoint of a concentration-inhibition curve.

Molecules are shown by their SMILES.

`CC(=C\C(=O)O)/C=C(\C)C[C@H](C)CCCC[C@H]1OC(=O)[C@@H]1CO` [F-244]: in data set [1], the IC50 was 35 nM.
For the compound `CC(C)[C@H](O)[C@@]12NC(=O)[C@H](C)[C@@H]1OC2=O` [omuralide, clasto-lactacystin-β-lactone, reference compound], the IC50 in data set [2] was 49 nM.
In the case of `C[C@@]12OC(=O)[C@]1([C@@H](O)[C@@H]1C=CCCC1)NC(=O)[C@@H]2CCCl` [salinosporamide A], the “inhibition of 20S proteasome (fluorescence of free AMC)” value in data set [3] is “not inhibited”; in data set [6], “inhibited”; in data set [7], “inhibited”. In addition, the induction of apoptosis result in data set [4] is reported as “induces apoptosis”. For the same compound, the oral activity entry in data set [5] is listed as “orally active”. Further, the survival entry in data set [5] is given as “prolongs survival”. The tolerability result in data set [5] is “well tolerated”. Further, the “efficacy in animal models” value in data set [8] is recorded as “efficacious”.

These data come from patent publication US20090325208A1 (priority 2006, published 2009).
